Reference: patent EP4737452A1, “NOVEL PYRIMIDINE DERIVATIVES” (Aigen Sciences Inc., priority 2023, dated 2025)
Like-named read-outs stand apart in the source and are kept apart here.

Assays:
[1] = molecular target: USP1 enzyme (Homo sapiens, UniProt O94782); assay: Biochemical analysis of USP1 enzyme activity (ubiquitin-rhodamine 110 deubiquitination, fluorescence); settings: ubiquitin-rhodamine 110 substrate, 10 minutes pre-incubation, 30 minutes reaction at room temperature; read-out: Enzyme activity IC50 grade
Description: In this experimental example, the inhibitory effect of the compounds according to the present invention and the positive control compound on USP1 deubiquitinating activity was tested using a biochemical enzymatic assay. Ubiquitin-rhodamine 110 was used as a substrate for measuring deubiquitinating activity. This substrate compound is a substance in which rhodamine 110 is linked to the glycine residue at the C-terminus of ubiquitin by an amide bond. When this amide bond is cleaved by the deubiquitinating activity, a fluorescent signal is counted.
Subsequently, analytical buffer solution (50 mM hydroxyethylpiperazineethanesulfonic acid (HEPES) containing USP1 enzyme, 100 mM NaCl, 2 mM tris(2-carboxyethyl)phosphine (TCEP), and 100 µg/mL bovine serum albumin (BSA)) were added to each well of the plate and incubated at room temperature for 10 minutes. Subsequently, analytical y buffer solution containing ubiquitin-rhodamine 110 was added to each well and reacted at room temperature for 30 minutes.

[2] = tested on: MDA-MB-436; assay: Cell survival analysis (CellTiter-Glo, 10 days culture); format: cell-based; settings: Homo sapiens, read-out: Cell growth IC50 grade
Description: In this experimental example, the cell growth inhibitory effect of compounds according to the present invention and positive control compounds in tumor cell lines was examined.
MDA-MB-436 (ATCC, #HTB-130) cell line was cultured in cell culture medium (Leibovitz's L-15 (GIBCO catalog no. 11415064) + 10 µg/mL insulin (Yeasen catalog no. 40112ES25) + 16 µg/mL glutathione (GIBCO catalog no. 25030-081) + 10% fetal bovine serum (FBS) (Excell Bio catalog no. FSP500)). 3,000 MDA-MB-436 cells were plated per well in a 96-well plate and cultured for 1 day at 37°C in 5% CO2. […] The cells were then cultured in a cell incubator for 10 days, and the cell culture medium containing the compound was replaced on the 5th day of culture. Cell survival rate was analyzed for luminescence using the Promega CellTiter-Glo Luminescent Cell Viability Assay Kit (Promega catalog number G7573), and the luminescence was measured using a PerkinElmer EnVision instrument. The percentage of cell growth inhibition rate was calculated from the measured relative luminescence unit (RLU) as follows. Inhibition rate = 1−((RLU compound−RLU blank)/(RLU control−RLU blank)) × 100 [formula]

[3] = 240 h, MDA-MB-436 cell line, cultured for 10 days, CellTiter-Glo

Chain of USP1 enzyme (O94782 whole entry): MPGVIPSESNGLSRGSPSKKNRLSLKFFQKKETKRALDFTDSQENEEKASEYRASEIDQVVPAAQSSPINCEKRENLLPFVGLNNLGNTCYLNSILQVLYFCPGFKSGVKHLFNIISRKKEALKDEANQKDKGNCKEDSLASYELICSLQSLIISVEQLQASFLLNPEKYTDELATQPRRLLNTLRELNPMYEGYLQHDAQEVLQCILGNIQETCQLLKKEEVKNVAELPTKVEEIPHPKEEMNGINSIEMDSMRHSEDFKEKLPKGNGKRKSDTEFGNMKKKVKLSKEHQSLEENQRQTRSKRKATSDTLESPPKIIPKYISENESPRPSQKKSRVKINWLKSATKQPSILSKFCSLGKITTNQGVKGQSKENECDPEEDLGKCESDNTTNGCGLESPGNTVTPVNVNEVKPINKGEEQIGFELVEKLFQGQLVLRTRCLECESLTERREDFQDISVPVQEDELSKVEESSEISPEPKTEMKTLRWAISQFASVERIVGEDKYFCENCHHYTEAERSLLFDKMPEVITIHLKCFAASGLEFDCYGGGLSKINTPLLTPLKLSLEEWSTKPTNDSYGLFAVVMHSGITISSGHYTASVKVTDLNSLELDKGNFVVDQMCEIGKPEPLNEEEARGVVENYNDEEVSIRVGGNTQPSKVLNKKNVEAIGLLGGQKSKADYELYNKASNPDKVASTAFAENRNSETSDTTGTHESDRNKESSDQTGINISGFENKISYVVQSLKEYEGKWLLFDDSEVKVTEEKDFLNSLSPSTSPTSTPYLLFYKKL
Chain of USP1 enzyme (Q8TAF3 whole entry partner): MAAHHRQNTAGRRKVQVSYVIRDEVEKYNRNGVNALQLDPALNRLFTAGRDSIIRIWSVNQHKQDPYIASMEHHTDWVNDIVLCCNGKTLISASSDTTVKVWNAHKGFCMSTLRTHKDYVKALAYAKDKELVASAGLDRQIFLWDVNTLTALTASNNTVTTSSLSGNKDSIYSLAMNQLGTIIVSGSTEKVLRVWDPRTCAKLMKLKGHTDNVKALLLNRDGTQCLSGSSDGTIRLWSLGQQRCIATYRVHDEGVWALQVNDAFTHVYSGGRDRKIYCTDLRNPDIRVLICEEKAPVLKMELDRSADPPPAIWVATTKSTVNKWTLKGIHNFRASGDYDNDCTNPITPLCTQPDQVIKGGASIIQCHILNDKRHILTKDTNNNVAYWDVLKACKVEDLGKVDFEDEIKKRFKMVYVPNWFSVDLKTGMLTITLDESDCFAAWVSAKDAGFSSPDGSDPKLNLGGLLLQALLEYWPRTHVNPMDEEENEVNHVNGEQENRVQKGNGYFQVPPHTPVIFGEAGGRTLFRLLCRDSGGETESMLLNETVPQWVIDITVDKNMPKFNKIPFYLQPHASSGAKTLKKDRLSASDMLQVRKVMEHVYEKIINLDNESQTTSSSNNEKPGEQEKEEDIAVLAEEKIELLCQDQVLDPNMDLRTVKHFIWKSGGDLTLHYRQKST

Compound	IC50 [1]	IC50 [2, 3]	IC50 ([2]; MDA-MB-436, 240 h)
COc1ncnc(C2CC2)c1-c1ncc(P(C)(C)=O)c(NCc2ccc(-n3nc(C(F)(F)F)cc3C)c(F)c2)n1 [Example 14, (4'-cyclopropyl-4-((3-fluoro-4-(5-methyl-3-(trifluoromethyl)-1H-pyrazole-1-yl)benzyl)amino)-6'-methoxy-[2,5'-bipyrimidine]-5-yl)dimethylphosphine oxide]	< 50 nM	< 100 nM	–
COc1ncnc(C2CC2)c1-c1ncc(P(C)(C)=O)c(NCC23CCC(c4nc(C(F)(F)F)cn4C)(CC2)CC3)n1 [Example 10, (4'-cyclopropyl-6'-methoxy-4-(((4-(1-methyl-4-(trifluoromethyl)-1H-imidazol-2-yl)bicyclo[2.2.2]octan-1-yl)methyl)amino)-[2,5'-bipyrimidine]-5-yl)dimethylphosphine oxide]	50 to 100 nM	100 to 500 nM	–
COc1ncnc(C2CC2)c1-c1ncc(P(C)(C)=O)c(NCC23C4C5C2C2C3C4C52c2nc(C(F)(F)F)cn2C)n1 [Example 11, (4'-cyclopropyl-6'-methoxy-4-((((1s,2R,3s,4r,5S,6r,7R,8S)-4-(1-methyl-4-(trifluoromethyl)-1H-imidazol-2-yl)cuban-1-yl)methyl)amino)-[2,5'-bipyrimidine]-5-yl)dimethylphosphine oxide]	< 50 nM	–	< 100 nM
COc1ncnc(C2CC2)c1-c1ncc(P(C)(C)=O)c(NCc2ccc(-n3nc(C(F)(F)F)cc3C3CC3)c(F)c2)n1 [Example 18, (4'-cyclopropyl-4-((4-(5-cyclopropyl-3-(trifluoromethyl)-1H-pyrazole-1-yl)-3-fluorobenzyl)amino)-6'-methoxy[2,5'-bipyrimidine]-5-yl)dimethylphosphine oxide]	< 50 nM	< 100 nM	–
COc1ncnc(C2CC2)c1-c1ncc(P(C)(C)=O)c(NCc2ccc(-n3nc(C(F)(F)F)cc3C(C)C)c(F)c2)n1 [Example 16, (4'-cyclopropyl-4-((3-fluoro-4-(5-isopropyl-3-(trifluoromethyl)-1H-pyrazol-1-yl)benzyl)amino)-6'-methoxy-[2,5'-bipyrimidine]-5-yl)dimethylphosphine oxide]	< 50 nM	< 100 nM	–
COc1ncnc(C2CC2)c1-c1ncc(P(C)(C)=O)c(NCc2ccc(-n3nc(C(F)(F)F)cc3C3CC3)cc2)n1 [Example 17, (4'-cyclopropyl-4-((4-(5-cyclopropyl-3-(trifluoromethyl)-1H-pyrazole-1-yl)benzyl)amino)-6'-methoxy-[2,5'-bipyrimidine]-5-yl)dimethylphosphine oxide]	< 50 nM	< 100 nM	–
Cc1cnc(-c2ccccc2C(C)C)nc1NCc1ccc(-n2ccnn2)cc1 [ML323, N-(4-(1H-1,2,3-triazol-1-yl)benzyl)-5-methyl-2-(2-isopropylphenyl)pyrimidin-4-amine, reference compound]	–	> 500 nM	–

Continued, in another order:

IC50 [1]	Compound	IC50 [2, 3]	IC50 ([2]; MDA-MB-436, 240 h)
50 to 100 nM	COc1ncnc(C2CC2)c1-c1ncc(P(C)(C)=O)c(NCc2ccc(-c3nc(C(F)(F)F)cn3C(C)C)cc2)n1 [Example 12, (4'-cyclopropyl-4-((4-(1-isopropyl-4-(trifluoromethyl)-1H-imidazol-2-yl)benzyl)amino)-6'-methoxy-[2,5'-bipyrimidine]-5-yl)dimethylphosphine oxide]	100 to 500 nM	–
< 50 nM	COc1ncnc(C2CC2)c1-c1ncc(P(C)(C)=O)c(NCc2ccc(-n3nc(C(F)(F)F)cc3C(C)C)cc2)n1 [Example 15, (4'-cyclopropyl-4-((4-(5-isopropyl-3-(trifluoromethyl)-1H-pyrazole-1-yl)benzyl)amino)-6'-methoxy-[2,5'-bipyrimidine]-5-yl)dimethylphosphine oxide]	< 100 nM	–
< 50 nM	COc1ncnc(C2CC2)c1-c1ncc(P(C)(C)=O)c(NCc2ccc(-c3nc(C(F)(F)F)cn3C(C)C)c(F)c2)n1 [Example 13, (4'-cyclopropyl-4-((3-fluoro-4-(1-isopropyl-4-(trifluoromethyl)-1H-imidazol-2-yl)benzyl)amino)-6'-methoxy-[2,5'-bipyrimidine]-5-yl)dimethylphosphine oxide]	< 100 nM	–
50 to 100 nM	COc1ncnc(C2CC2)c1-c1ncc(P(C)(C)=O)c(NCc2ccc(-c3nc(C(F)(F)F)cn3C)c(F)c2)n1 [Example 7, (4'-cyclopropyl-4-((3-fluoro-4-(1-methyl-4-(trifluoromethyl)-1H-imidazol-2-yl)benzyl)amino)-6'-methoxy-[2,5'-bipyrimidine]-5-yl)dimethylphosphine oxide]	< 100 nM	–
< 50 nM	COc1ncnc(C2CC2)c1-c1ncc(P(C)(C)=O)c(NCc2ccc(-c3nc(C(F)(F)F)cn3C3CC3)cc2)n1 [Example 8, (4'-cyclopropyl-4-((4-(1-cyclopropyl-4-(trifluoromethyl)-1H-imidazol-2-yl)benzyl)amino)-6'-methoxy-[2,5'-bipyrimidine]-5-yl)dimethylphosphine oxide]	< 100 nM	–
50 to 100 nM	COc1ncnc(C2CC2)c1-c1ncc(P(C)(C)=O)c(NCc2ccc(-c3nc(C(F)(F)F)cn3C)cc2)n1 [Example 2, (4'-cyclopropyl-6'-methoxy-4-((4-(1-methyl-4-(trifluoromethyl)-1H-imidazol-2-yl)benzyl)amino)-[2,5'-bipyrimidine]-5-yl)dimethylphosphine oxide]	100 to 500 nM	–
< 50 nM	COc1ncnc(C2CC2)c1-c1ncc(P(C)(C)=O)c(NCc2ccc(-n3nc(C(F)(F)F)cc3C)cc2)n1 [Example 9, (4'-cyclopropyl-6'-methoxy-4-((4-(5-methyl-3-(trifluoromethyl)-1H-pyrazole-1-yl)benzyl)amino)-[2,5'-bipyrimidine]-5-yl)dimethylphosphine oxide]	< 100 nM	–
> 100 nM	Cn1cc(C(F)(F)F)nc1-c1ccc(CNc2nc(-c3cccnc3OC(F)F)ncc2P(C)(C)=O)cc1 [Example 6, (2-(2-(difluoromethoxy)pyridin-3-yl)-4-((4-(1-methyl-4-(trifluoromethyl)-1H-imidazol-2-yl)benzyl)amino)pyrimidin-5-yl)dimethylphosphine oxide]	100 to 500 nM	–
50 to 100 nM	[2H]C([2H])([2H])Oc1ncnc(C2CC2)c1-c1ncc(P(C)(C)=O)c(NCc2ccc(-c3nc(C(F)(F)F)cn3C)cc2)n1 [Example 5, (4'-cyclopropyl-6'-(methoxy-d3)-4-((4-(1-methyl-4-(trifluoromethyl)-1H-imidazol-2-yl)benzyl)amino)-[2,5'-bipyrimidine]-5-yl)dimethylphosphine oxide]	100 to 500 nM	–
> 100 nM	Cc1cnn(C(C)C)c1-c1ncc(P(C)(C)=O)c(NCc2ccc(-c3nc(C(F)(F)F)cn3C)cc2)n1 [Example 3, (2-(1-isopropyl-4-methyl-1H-pyrazole-5-yl)-4-((4-(1-methyl-4-(trifluoromethyl)-1H-imidazol-2-yl)benzyl)amino)pyrimidin-5-yl)dimethylphosphine oxide]	> 500 nM	–
> 100 nM	CC(C)c1ncccc1-c1ncc(P(C)(C)=O)c(NCc2ccc(-c3nc(C(F)(F)F)cn3C)cc2)n1 [Example 4, (2-(2-isopropylpyridine-3-yl)-4-((4-(1-methyl-4-(trifluoromethyl)-1H-imidazol-2-yl)benzyl)amino)pyrimidin-5-yl)dimethylphosphine oxide]	100 to 500 nM	–
